Experimental data as given in patent US20120277171A1, “Warmi®, natural alternative for the treatment of menopause” (priority 2011, published 2012).

Experiments:
[1] = test system: triglycerides (TG), total cholesterol (TC), HDL, LDL and serum glucose levels; assay: Clinical trial: lipids and glucose count; assay type: in vivo, human
Procedure: The triglycerides (TG), total cholesterol (TC), HDL, LDL and serum glucose levels (Valtek S.A.) were measured based on a peripheral blood test prior to the start of the treatment, at months 1, 3 and 6 following treatment. TG, TC and HDL levels were measured with a MicroLab semiautomatic analyzer, through an enzymatic colorimetric technique, using the manufacturer's manual and procedures. Normal values shall be TC<200 mg/dL, HDL>35 mg/dL, LDL<130 mg/dL and TG<170 mg/dL.

[2] = test system: TNF-α, INF-y and IL-6 cytokines; assay: Clinical trial: cytokine count; assay type: in vivo, human
Procedure: Peripheral blood samples were obtained in vacutainer test tubes with anticoagulant (Becton Dickenson, BD). The biological sample was previously centrifuged and stored at a −70° C. for the respective cytokine count. Type Th1: TNF-α, INF-y and Th2: IL-6 cytokines were counted. The manufacturer's instructions were followed and the cytokine concentrations were calculated according to the specifications (Pharmingen, BD). Cytokines were measured prior to and upon conclusion of the treatment.
(§1) The levels of cytokines, osteocalcin, growth hormone and C-reactive protein were measured in the Laboratory of the Molecular Biotechnology Unit of the Research and Development Laboratories of the Universidad Peruana Cayetano Heredia (UPCH). All laboratory procedures were conducted in duplicate, standards were used to ensure the reproducibility and quality of the results.

[3] = human, in vivo
Procedure: (§2) Prospective, longitudinal, double blind, three stage, comparative clinical and laboratory evaluation trials on symptomatic postmenopausal women who attended the menopause medical units of the Hospital Nacional Cayetano Heredia, Hospital Nacional Arzobispo Loayza, Hospital Docente Madre Niño San Bartolomé and the medical unit of the Universidad Nacional Agraria La Molina.
(§3) Warmi® capsules (510 mg) were manufactured by Laboratorios Hersil S.A. Capsules were manufactured following Good Manufacturing Practices (GMP) and following the Hazard Analysis and Critical Control Points (HACCP). Warmi® is a natural proprietary blend composed of β-sitosterol, glucosinolates and citrus flavonoids (hesperidin). […] Patients received 3 capsules a day to be taken every 6 hours.
Tibolone was used as HRT. Tibolone was masked in a capsule with the same appearance as the previous groups. Patients received 3 capsules a day to be taken every 6 hours. […]
The statistical analysis was done using a SPSS statistical package (version 11.0). The results were expressed as a mean±standard error (SE), and a p<0.05 was considered significant. The variables were analyzed as a change in relation to the basal level and compared by treatment groups.
There was a small decrease in the hematocrit (1.43%) of the placebo group. […] Upon observing the other quantifiable parameters, no significant changes are noticed.

[4] = test system: FSH, LH, estradiol, progesterone and DHEAS; assay: Clinical trial: hormone count in serum (immunochemical luminescence); assay type: in vivo, human; settings: for reduction of FSH: FIG. 2
Procedure: Laboratory tests were requested prior to the beginning of the treatments (basal levels) and after 3 and 6 months. The levels of the following hormones were measured in the Laboratory of the Molecular Biotechnology Unit of the Research and Development Laboratories of the Universidad Peruana Cayetano Heredia: FSH, LH, estradiol, progesterone and DHEAS. The following normal menopausal values shall be considered: FSH of between 25.0 and 134.8 mlU/mL, LH of between 7.7 and 58.5 mlU/mL, estradiol between <10.0 and 39.5 pg/mL and progesterone between 0.20 and 1.00 ng/mL.
In order to determine the hormonal levels, a peripheral blood test was taken from each patient on an empty stomach and the serum FSH, LH, estradiol, progesterone and DHEAS levels were taken using the immunochemical luminescence method, following the standardized procedures of the laboratory.

[5] = test system: human osteocalcin; assay: Clinical trial: plasma osteocalcin (EASIA); assay type: in vivo; settings: after 6 months of treatment; FIG. 13
Procedure: Plasma osteocalcin was measured through the EASIA technique (Enzyme Amplified Sensitivity Immunoassay) using monoclonal antibodies against different epitopes of human osteocalcin (Biosource International, Inc., USA), with a sensitivity of 0.4 ng/mL. Human osteocalcin was measured at the beginning of the treatment and after 6 months of treatment, according to the manufacturer's instructions.
as §1

[6] = test system: symptomatic postmenopausal women; assay: Greene Climateric Scale; assay type: in vivo, human; settings: FIGS. 31-35
Source text: The changes are observed in sub-categories of Anxiety, Depression, Vasomotor Symptoms and Sexual Aspects.

[7] = Clinical trial: anthropometric parameters and vital signs; assay type: in vivo, human; settings: mean ± SD
Procedure: as §2, §3
Tibolone was used as HRT. Tibolone was masked in a capsule with the same appearance as the previous groups. Patients received 3 capsules a day to be taken every 6 hours. Tibolone is the latest treatment for menopausal symptoms in Peru. Tibolone is a synthetic steroid with estrogenic, progestogenic and androgenic activity, used for the treatment of menopausal symptoms and post-menopausal osteoporosis. It has been observed that Tibolone reduces the level of triglycerides, HDL, total cholesterol and with no effect on the LDL.
The sample group was integrated by symptomatic postmenopausal women who attend the menopause centers of the participating hospitals. 135 participants were accepted in the study and each hospital recruited the patients that were randomly assigned to the three treatment groups: Warmi®, Tibolone and placebo.
The statistical analysis was done using a SPSS statistical package (version 11.0). […] The variables were analyzed as a change in relation to the basal level and compared by treatment groups.

[8] = test system: C-reactive protein; assay: Clinical trial: C-reactive protein (ELISA); assay type: in vivo, human; settings: after 6 months of treatment
Procedure: C-reactive protein from human plasma (Diagnostic Automation Inc., USA) was tested with a very sensitive ELISA using a monoclonal antibody against a different antigenic determinant on the C-Reactive Protein molecule, with a sensitivity of […]. C-reactive protein (CRP) was measured prior to treatment and after 6 months of treatment, according to the manufacturer's instructions.
as §1

C#C[C@]1(O)CC[C@H]2[C@@H]3[C@H](C)CC4=C(CCC(=O)C4)[C@H]3CC[C@@]21C [Tibolone]
effect on triglycerides levels (in words) ([1]; FIG. 8): significant decrease
effect on HDL levels (in words) ([1]; FIG. 9, Tibolone: after 1, 3 and 6 months of treatment): significant reduction
effect on LDL levels (in words) ([1]; FIG. 10): significant reduction
effect on LDL/HDL ratio (in words) ([1]; FIG. 12, Tibolone: after six months, Warmi: after both 3 and 6 months): reduction
reduction of total cholesterol ([1]; after six months of treatment, FIG. 7): 12.37%
reduction in the level of glycemia ([1]; at the end of the study, FIG. 6): 7.39%
effect on interferon gamma (INF-y) (in words) ([2]; FIG. 16, none were significant): slight increases
effect on Interleukin 6 (IL-6) levels (in words) ([2]; FIG. 17, Tibolone: after 3 months alone, Warmi: after both treatment periods): significantly reduced
increase in the hematocrit [3]: 3.53%
reduction of FSH ([4]; month six of treatment): 16.20%
reduction of FSH ([4]; month three of treatment): 29.58%
drop of DHEAS in serum ([4]; month three, FIG. 3): 12.87%
decrease of progesterone ([4]; month three, FIG. 4): 29.70%
effect on osteocalcin levels (in words) [5]: significant reduction
Greene survey: sub-categories Anxiety, Depression, Vasomotor Symptoms and Sexual Aspects (in words) [6]: Changes were also observed
Diastolic BP ([7]; 3rd Month): 72.5 ± 10.83
Heart Rate ([7]; 3rd Month): 63.66 ± 1.96
Pulse Pressure ([7]; 3rd Month): 64 ± 1.78
Respiratory Rate ([7]; 3rd Month): 16.33 ± 0.98
Systolic BP ([7]; 3rd Month): 113.33 ± 8.16
Diastolic BP ([7]; 6th Month): 73.16 ± 11.4
Heart Rate ([7]; 6th Month): 62.67 ± 2.42
Pulse Pressure ([7]; 6th Month): 62.67 ± 2.42
Systolic BP ([7]; 6th Month): 110 ± 8.98
Respiratory Rate ([7]; 6th Month, *p ≦ 0.05): 16.16 ± 0.41
increase of CRP (change in percentage) [8]: 26.83%
